Broadly, the IC50 is the midpoint of a concentration-inhibition curve. Read a high IC50 as weaker potency.

This assay deals with HEK Blue™ TNFα reporter cells. Briefly: TNF-α Induced HEK Blue Cellular Assay. It counts as cell-based. The following applies: TNF-α stimulated HEK Blue TNFα reporter cells, 24 hrs, secreted alkaline phosphatase (QUANTI-Blue, 620 nm). The method, then:
Test articles were diluted in DMSO and serially diluted into 384 well assay plate (Corning 3765), at final concentrations ranging from […] to 0.5 nM. HEK Blue™ TNFα reporter cells were added at a final density of 10,000 cell per well in assay media [DMEM (Gibco, cat #21063-029), 10% fetal bovine serum (ExcelBio, cat #FND500), 1% Penicillin-Streptomycin (Solarbio, cat #P1400-100]. TNF-α (R&D 210-TA-020/CF) was then added to the assay plate at a final concentration of […]. This plate was then incubated for 24 hrs at 37° C. and 5% CO2. Secreted alkaline phosphatase expression was then measured using QUANTI-Blue™(Invivogen), according to manufacturer instructions and read on an Envision microplate reader at 620 nm.
Inhibition data for test compound over a range of concentration was plotted as percentage inhibition of the test compound (100%=maximum inhibition). IC50 values were determined after correcting for background [(sample read-mean of low control)/(mean of high control-mean of low control)] whereby the low control is DMSO without stimulation and high control is DMSO with stimulation. The IC50 is defined as the concentration of test compound which produces […] and was quantified using the 4 parameter logistic equation to fit the data.
Take `CN1C(=O)c2cccc(OC(F)F)c2[C@H]2C[C@@H]1c1nc3ccc(-c4cnc5c(c4)CC[C@@]5(C)O)cc3n12` (single isomer, unassigned) [Example 11]: the IC50 was less than 100 nM.

`CN1C(=O)c2cccc(OC(F)F)c2[C@H]2C[C@@H]1c1nc3ccc(-c4cnc5c(c4)CC[C@]5(C)O)cc3n12` (single isomer, unassigned) [Example 12] returned an IC50 of less than 100 nM. As for `CN1C(=O)c2cccc(OC(F)F)c2[C@H]2C[C@@H]1c1nc3ccc(-c4cnc5c(c4)CC[C@@H]5N)cc3n12` (single isomer, unassigned) [Example 16], the figure is less than 100 nM; as for `CN1C(=O)c2cccc(OC(F)F)c2[C@H]2C[C@@H]1c1nc3ccc(-c4cnc5c(c4)CC[C@H]5N)cc3n12` (single isomer, unassigned) [Example 17], less than 100 nM; as for `CN1C(=O)c2cccc(OC(F)F)c2[C@H]2C[C@@H]1c1nc3ccc(-c4cnc5c(c4)CC[C@@]5(C)N)cc3n12` (single isomer, unassigned) [Example 22], less than 100 nM. Turning to `CN1C(=O)c2cccc(OC(F)F)c2[C@H]2C[C@@H]1c1nc3ccc(-c4cnc5c(c4)CC[C@]5(C)N)cc3n12` (single isomer, unassigned) [Example 23], the IC50 is less than 100 nM. As for `[2H]C([2H])([2H])N1C(=O)c2cccc(OC(F)F)c2[C@H]2C[C@@H]1c1nc3cc(F)c(-c4cnc5c(c4)CC[C@]5(C)N)cc3n12` (single isomer, unassigned) [Example 25], the figure is less than 100 nM.

For the compound `[2H]C([2H])([2H])N1C(=O)c2cccc(OC(F)F)c2[C@H]2C[C@@H]1c1nc3cc(F)c(-c4cnc5c(c4)CC[C@@]5(C)N)cc3n12` (single isomer, unassigned) [Example 26], the IC50 was less than 100 nM. As for `[2H]C([2H])([2H])N1C(=O)c2cccc(OC(F)F)c2[C@H]2C[C@@H]1c1nc3ccc(-c4cnc5c(c4)CC[C@]5(C)N)cc3n12` (single isomer, unassigned) [Example 28], the figure is less than 100 nM; as for `[2H]C([2H])([2H])N1C(=O)c2cccc(OC(F)F)c2[C@H]2C[C@@H]1c1nc3ccc(-c4cnc5c(c4)CC[C@@]5(C)N)cc3n12` (single isomer, unassigned) [Example 29], less than 100 nM; as for `[2H]C([2H])([2H])N1C(=O)c2cccc(OC(F)F)c2[C@H]2C[C@@H]1c1nc3ccc(-c4cnc5c(c4)CC[C@]5(C)O)cc3n12` (single isomer, unassigned) [Example 32], less than 100 nM. As for `[2H]C([2H])([2H])N1C(=O)c2cccc(OC(F)F)c2[C@H]2C[C@@H]1c1nc3ccc(-c4cnc5c(c4)CC[C@@]5(C)O)cc3n12` (single isomer, unassigned) [Example 33], the figure is less than 100 nM. `[2H]C([2H])([2H])N1C(=O)c2cccc(OC(F)F)c2[C@H]2C[C@@H]1c1nc3ccc(-c4cnc5c(c4)OCC[C@]5(C)O)cc3n12` (single isomer, unassigned) [Example 34] yielded a half-maximal inhibitory concentration (IC50) of less than 100 nM.

Compound `[2H]C([2H])([2H])N1C(=O)c2cccc(OC(F)F)c2[C@H]2C[C@@H]1c1nc3ccc(-c4cnc5c(c4)OCC[C@@]5(C)O)cc3n12` (single isomer, unassigned) [Example 35] displayed an IC50 of less than 100 nM. As for `CN1C(=O)c2cccc(OC(F)F)c2[C@H]2C[C@@H]1c1nc3ccc(-c4cnc5c(c4)CC[C@]5(N)CO)cc3n12` (single isomer, unassigned) [Example 36], the figure is less than 100 nM; as for `CN1C(=O)c2cccc(OC(F)F)c2[C@H]2C[C@@H]1c1nc3ccc(-c4cnc5c(c4)CC[C@@]5(N)CO)cc3n12` (single isomer, unassigned) [Example 37], less than 100 nM. As to `[2H]C([2H])([2H])N1C(=O)c2cccc(OC(F)F)c2[C@H]2C[C@@H]1c1nc3ccc(-c4cnc5c(c4)COC[C@]5(C)O)cc3n12` (single isomer, unassigned) [Example 38], the 50% inhibitory concentration (IC50) lay in the range of 10000 to 30000 nM.

Source of the values: patent US20260028348A1, “MODULATORS OF TNF-ALPHA ACTIVITY” (Forward Therapeutics, Inc., priority 2023, published 2026).
